According to article PMC3986099, “Development of a Radioiodinated Triazolopyrimidine Probe for Nuclear Medical Imaging of Fatty Acid Binding Protein 4” (PLoS ONE, 2014):

Columns and labels:
[1] = Serum protein binding by rapid equilibrium dialysis; assay type: in vitro ADME; details: mouse plasma, 37 °C, 4 hr
Protocol: The serum protein binding ratio of [^125I]TAP1 was measured using rapid equilibrium dialysis (RED) devices (Thermo Fisher Scientific K.K.) following the manufacturer's procedures. Briefly, [^125I]TAP1 (0.02 MBq, 0.02 ml) and mouse plasma (0.3 ml) were mixed and placed to the sample chamber and 0.5 ml PBS (-) was placed in the RED device buffer chamber. After incubation at 37 °C for 4 hr, 0.05 ml of the samples were obtained from each chamber. The binding ratios were calculated as: (sample chamber radioactivity)-(buffer chamber radioactivity)/(sample chamber radioactivity) x 100 (%).

[2] = Metabolite analysis in liver and kidneys; assay type: in vivo, ddY mice; details: 1 hr after i.v. administration, normal mice
Protocol: A saline solution (5% ethanol, v/v) of [^125I]TAP1 (1.20 MBq) was injected intravenously into the tail vein of ddY mice (males, 5 weeks old), and animals were sacrificed 1 hr post-injection. The liver and kidneys were removed and homogenized in 1 ml ice-cold 30 mM Tris-HCl buffer (pH = 8.5) containing 5 mM magnesium acetate at 4 °C. After addition of 3 ml cold methanol and vortexing, tissue samples were centrifuged (10,000×g, 5 min). The supernatants were filtered, and the filtrate was analyzed by RP-HPLC as described above.

FABP4 = target: T1, FABP4 (Homo sapiens, UniProt P15090); assay: Saturation binding assay, Scatchard analysis; details: immobilized FABP4
T1 construct: purchased Cayman Chemical Company
Protocol: For the saturation assay, a mixture solution of [^125I]TAP1 (0.3–9.5 MBq) was prepared by mixing nonradioactive TAP1 (0.0125–0.4 µM) in interaction buffer (2.5% ethanol and 5% DMSO, v/v). Nonspecific binding was defined in the presence of 0.09 mg/ml [^125I]TAP1 including nonradioactive TAP1. After FABP4 immobilization as described above, 0.4 ml interaction buffer and 0.05 ml mixture solution were added, and the mixture was incubated at room temperature for 2 hr. After incubation, the supernatants were removed and the beads were washed with interaction buffer (5% ethanol, v/v). The radioactivity of beads in the tubes was then measured with a well-type γ-counter. The dissociation constant (K d) of [^125I]TAP1 for FABP4 was determined by Scatchard analysis using GraphPad Prism.

[3] = In vitro stability in saline and plasma (RP-HPLC); assay type: in vitro ADME, ddY mice; details: 2 hr, 37 °C
Protocol: The in vitro stability of [^125I]TAP1 in plasma was measured using plasma samples taken from ddY mice (males, 7 weeks old). [^125I]TAP1 (0.07 MBq, 0.01 ml) was incubated with 0.1 ml plasma at 37 °C for 2 hr. After addition of 0.2 ml methanol and vortexing, the mixture was centrifuged (4,160×g, 10 min). The supernatant was filtered with a low protein binding hydrophilic PTFE membrane (Millex-LH MILLIPORE), and the filtrate was analyzed by RP-HPLC using a Cosmosil C18 column with an isocratic solvent of H2O (0.1% TFA, v/v)/acetonitrile (0.1% TFA, v/v) (37/63) at a flow rate of 1.5 ml/min.

[4] = tested on: 3T3-L1 preadipocytes and differentiated adipocytes; assay: Cell uptake study in adipocytes and preadipocytes; assay type: cell-based, Murine; details: 37 °C, 1 hr
Protocol: Murine 3T3-L1 preadipocytes were obtained from ATCC and cultured in Dulbecco's Modified Eagle Medium (Nissui Pharmaceutical Co., Ltd.) supplemented with 10% heat-inactivated fetal bovine serum, 50 U/ml penicillin and 50 μg/ml streptomycin at 37 °C in 5% CO2. For cell uptake assay, differentiation of 3T3-L1 cells was performed as described previously. Briefly, two days after confluence, the medium was replaced with DMEM containing 10% FBS and inducers ([…], 10 μg/ml insulin, 0.5 mM 3-isobutyl-1-methylxanthine and 10 μM pioglitazone hydrochloride) for 2 days. The medium was then changed to DMEM supplemented with 10% FBS, 10 μg/ml insulin and 10 μM pioglitazone hydrochloride, and then incubated for 2 days. Then, the medium was changed to DMEM supplemented with 10% FBS and 10 μM pioglitazone hydrochloride every other day. After 8-10 days, the differentiated adipocytes were used for experiments.
For the cell uptake study using adipocytes, the medium of 24-well plate, in which the differentiated adipocytes or undifferentiated 3T3-L1 cells are cultured, was removed. […] Following the measurement of the radioactivity of collected cell lysate with a well-type γ-counter, protein determination was performed. […] Binding ratios were calculated as (radioactivity in collected cells)/(total applied radioactivity)/(protein abundance) x 100 (%Dose/mg protein).

T1 sequence (P15090 whole entry): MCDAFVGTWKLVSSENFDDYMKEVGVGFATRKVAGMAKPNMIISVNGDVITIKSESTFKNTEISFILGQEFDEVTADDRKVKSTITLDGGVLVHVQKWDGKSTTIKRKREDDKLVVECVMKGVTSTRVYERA

percentage bound to serum proteins [1]: more than 99%
intact form in kidneys [2]: more than 90%
intact form in liver [2]: more than 90%
Kd (FABP4): 69.1 ± 12.3 nM
Compound: O=c1cc(COc2cccc([125I])c2)[nH]c2nc(-c3ccccc3)nn12 [[^125I]TAP1]
stability in mouse plasma ([3]; mouse plasma): no radioactive degradation products were observed
stability in saline ([3]; saline): no radioactive degradation products were observed
uptake into adipocytes (FABP4 positive) vs 3T3-L1 preadipocytes (FABP4 negative) [4]: significantly higher
